# Results taken from patent US9622984B1, “Synthesis of naringenin nanoparticles” (priority 2016, dated 2017).
# Columns and labels:
# [1] = tested on: Nile tilapia (Oreochromis niloticus) exposed to 5 ppm CdCl2.H2O; assay: Cadmium concentration in tissues by atomic absorption spectrophotometer after 21 days exposure; assay type: in vivo; settings: fish exposed to Cd only (5 ppm), control 205.4804±62.9 ng/g
# Description: (§1) Experimental design was as follows. Adult Nile tilapia, Oreochromis niloticus (n=120 fish), with an average length of 20±4 cm and weight of 150 g-200 g were procured from the local fish farm near Riyadh City. They were checked thoroughly for injury and disease conditions. After washing with 0.01% KMnO4 solution for 15 min, they were divided into five groups each comprising 20 fish and kept in glass tanks (100 L capacity) with non-chlorinated tap water. Prior to the start of the experiment, the fish were acclimated to the food and laboratory conditions with 12 hr dark and 12 hr light cycles, pH range of 6 to 8 and temperature ranging from 20° C. to 24° C. for 15 days. The exposure period was 21 days. Through the entire experimental period the fish were fed commercial pelleted diet at 2% body weight.
# (§2) The experimental groups were in replicates as follows. Group I was the negative control which contained dechlorinated tap water with no added CdCl2.H2O and without any antioxidant treatment (designated “Control” in FIGS. 9-10). […]
# Cadmium concentration in tissues was determined as follows. […] The concentration of Cd in digested tissue samples were analyzed in an atomic absorption spectrophotometer.
# Cadmium accumulation in liver was assessed as follows. […]
# HSP70 = HSP70 levels in gills (ELISA kit) after 21 days exposure; assay type: in vivo, Oreochromis niloticus; settings: fish exposed to Cd only (5 ppm), control 152.8800±11.81554 pg/g
# Description: as §1, §2
# Biochemical analysis was performed as follows. A quantitation of MDA levels in the liver (lipid peroxides) was done by a high performance liquid chromatographic (HPLC) method. […] The levels of hepatic metalothionein levels (MT-2) and HSP70 in […] were also assessed using commercial ELISA kits.
# Heat shock protein (HSP70) in gills was determined as follows. […]
smiles,measurement,setting,value
"O.[Cd+2].[Cl-].[Cl-] [Cd, CdCl2.H2O]",Cd concentration in the liver,[1],1113.3320 ± 48.39 ng/g
same,HSP70 concentration in gills,HSP70,251.6600 ± 19.36 pg/g
